Target: T1, Progesterone receptor (Oryctolagus cuniculus, UniProt P06186)
T1 sequence (P06186 whole entry): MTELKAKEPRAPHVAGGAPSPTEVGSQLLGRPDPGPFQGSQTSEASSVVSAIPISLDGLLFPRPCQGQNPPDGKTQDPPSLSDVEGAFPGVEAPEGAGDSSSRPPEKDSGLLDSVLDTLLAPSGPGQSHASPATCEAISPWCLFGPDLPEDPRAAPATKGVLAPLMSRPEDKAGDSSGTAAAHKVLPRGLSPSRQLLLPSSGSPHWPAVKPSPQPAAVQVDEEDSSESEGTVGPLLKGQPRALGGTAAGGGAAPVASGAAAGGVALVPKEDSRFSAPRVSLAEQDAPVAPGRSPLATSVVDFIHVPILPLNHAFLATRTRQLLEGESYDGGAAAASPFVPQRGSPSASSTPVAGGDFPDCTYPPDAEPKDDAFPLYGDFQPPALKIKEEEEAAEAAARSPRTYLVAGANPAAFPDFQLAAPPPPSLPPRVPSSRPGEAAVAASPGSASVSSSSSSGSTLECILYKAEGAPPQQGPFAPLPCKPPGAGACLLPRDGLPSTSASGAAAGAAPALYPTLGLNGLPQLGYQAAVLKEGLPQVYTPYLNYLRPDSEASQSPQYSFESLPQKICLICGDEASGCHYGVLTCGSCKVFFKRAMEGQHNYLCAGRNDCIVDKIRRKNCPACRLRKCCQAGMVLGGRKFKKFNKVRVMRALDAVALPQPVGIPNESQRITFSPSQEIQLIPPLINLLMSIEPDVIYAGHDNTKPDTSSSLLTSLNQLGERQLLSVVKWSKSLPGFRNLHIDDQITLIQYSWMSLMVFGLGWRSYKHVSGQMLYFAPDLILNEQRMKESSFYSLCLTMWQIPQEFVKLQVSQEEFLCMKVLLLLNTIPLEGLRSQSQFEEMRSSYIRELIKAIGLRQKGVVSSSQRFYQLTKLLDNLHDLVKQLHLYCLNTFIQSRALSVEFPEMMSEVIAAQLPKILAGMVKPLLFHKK
Assay: Inhibition of [3H]R5020 binding to rabbit uterine progesterone receptor

SMILES | Ki
CC12CCC3C4CCC(=O)C=C4CCC3C1CCC2(O)/C=C\I (centres undefined) | 4.26 nM
C=C(I)C1(O)CCC2C3CCC4=CC(=O)CCC4C3CCC21C (centres undefined) | 80.1 nM
CC12CCC3C4CCC(=O)C=C4CCC3C1CCC2(O)/C=C/I (centres undefined) | 1.81 nM
CC12CCC3C4CCC(=O)C=C4CCC3C1C[C@@H](I)C2O (some centres undefined) | 39.8 nM
